Assay results as given in ChEMBL document CHEMBL5053490, “Fusaricide is a Novel Iron Chelator that Induces Apoptosis through Activating Caspase-3” (J Nat Prod, 2021).
Active and inactive are the calls of the source. The calls are words filed in the database; no cut-off is given here.

Assays:
[1] = system: NCI-H460; assay: Cytotoxicity against human NCI-H460 cells assessed as reduction in cell viability incubated for 24 hrs by CCK8 assay; assay type: functional, cell-based; conditions: NCI-H460, 24 h
[2] = system: NCI-H460; assay: Cytotoxicity against human NCI-H460 cells assessed as reduction in cell viability incubated for 48 hrs by CCK8 assay; assay type: functional, cell-based; conditions: NCI-H460, 48 h
[3] = system: NCI-H460; assay: Cytotoxicity against human NCI-H460 cells assessed as cell viability rescue at 10 uM incubated for 24 hrs in presence of Fecl3 by CCK8 assay; assay type: functional, cell-based
[4] = system: NCI-H1299; assay: Cytotoxicity against human NCI-H1299 cells assessed as cell viability rescue at 10 uM incubated for 24 hrs in presence of Fecl3 by CCK8 assay; assay type: functional, cell-based
[5] = system: NCI-H226; assay: Cytotoxicity against human NCI-H226 cells assessed as cell viability rescue at 10 uM incubated for 24 hrs in presence of Fecl3 by CCK8 assay; assay type: functional, cell-based
[6] = system: NCI-H460; assay: Induction of apoptosis in human NCI-H460 cells assessed as viable cells at 10 uM incubated for 24 hrs in presence of FeCl3 by AnnexinV-FITC/propidium iodide staining based flow cytometry (reference value: 89.5%); assay type: functional; conditions: read-out: Activity
[7] = system: NCI-H1299; assay: Reversal of cell death in human NCI-H1299 cells at up to 40 uM measured after 24 hrs by in presence of FeCl3; assay type: functional, cell-based
[8] = system: NCI-H460; assay: Induction of apoptosis in human NCI-H460 cells assessed as late apoptotic cells at 10 uM incubated for 48 hrs by AnnexinV-FITC/propidium iodide staining based flow cytometry (reference value: 7.54%); assay type: functional
[9] = system: NCI-H460; assay: Induction of apoptosis in human NCI-H460 cells assessed as necrotic cells at 10 uM incubated for 24 hrs by AnnexinV-FITC/propidium iodide staining based flow cytometry (reference value: 1.28%); assay type: functional
[10] = system: NCI-H460; assay: Induction of apoptosis in human NCI-H460 cells assessed as necrotic cells at 10 uM incubated for 12 hrs by AnnexinV-FITC/propidium iodide staining based flow cytometry (reference value: 1.28%); assay type: functional
[11] = system: NCI-H460; assay: Induction of morphological changes in human NCI-H460 cells assessed as roughness of cell membrane at 10 uM measured after 24 hrs by Hoechst 33342 staining based assay; assay type: functional
[12] = system: NCI-H460; assay: Induction of apoptosis in human NCI-H460 cells assessed as late apoptotic cells at 10 uM incubated for 24 hrs by AnnexinV-FITC/propidium iodide staining based flow cytometry (reference value: 7.54%); assay type: functional
[13] = system: NCI-H460; assay: Induction of apoptosis in human NCI-H460 cells assessed as early apoptotic cells at 10 uM incubated for 12 hrs by AnnexinV-FITC/propidium iodide staining based flow cytometry (reference value: 0.74%); assay type: functional
[14] = system: MRC5; assay: Cytotoxicity against human MRC5 cells up to 100 uM assessed as reduction in cell viability incubated for 48 hrs by CCK8 assay; assay type: cell-based; conditions: mrc5, 48 h
[15] = system: NCI-H460; assay: Induction of cell cycle arrest in human NCI-H460 cells assessed as accumulation at sub G2/M phase at 10 uM after 12 hrs by flow cytometric analysis (reference value: 9.8%); assay type: functional
[16] = system: NCI-H460; assay: Induction of apoptosis in human NCI-H460 cells assessed as increase in Caspase 3 activity at 10 uM measured by Western blot analysis; assay type: functional, cell-based; conditions: time <= 48.0 hrs, TDE = time-dependent effect
[17] = system: NCI-H460; assay: Reversal of cell death in human NCI-H460 cells at up to 40 uM measured after 24 hrs by in presence of FeCl3; assay type: functional, cell-based
[18] = system: NCI-H460; assay: Induction of cell cycle arrest in human NCI-H460 cells assessed as accumulation at sub G2/M phase at 10 uM after 24 hrs by flow cytometric analysis (reference value: 9.8%); assay type: functional
[19] = system: NCI-H460; assay: Induction of apoptosis in human NCI-H460 cells assessed as viable cells at 10 uM incubated for 24 hrs by AnnexinV-FITC/propidium iodide staining based flow cytometry (reference value: 90.4%); assay type: functional; conditions: read-out: Activity
[20] = system: NCI-H460; assay: Induction of apoptosis in human NCI-H460 cells assessed as necrotic cells at 10 uM incubated for 36 hrs by AnnexinV-FITC/propidium iodide staining based flow cytometry (reference value: 1.28%); assay type: functional
[21] = system: NCI-H460; assay: Induction of apoptosis in human NCI-H460 cells assessed as increase in cleaved PARP measured upto 48 hrs by Western blot analysis; assay type: functional, cell-based; conditions: TDE = time-dependent effect
[22] = system: NCI-H460; assay: Induction of apoptosis in human NCI-H460 cells assessed as necrotic cells at 10 uM incubated for 48 hrs by AnnexinV-FITC/propidium iodide staining based flow cytometry (reference value: 1.28%); assay type: functional
[23] = system: NCI-H460; assay: Effect on labile iron pool in human NCI-H460 cells assessed as […] at 10 uM by calcein-AM staining based flow cytometry analysis relative to control; assay type: functional, cell-based
[24] = system: NCI-H460; assay: Induction of cell cycle arrest in human NCI-H460 cells assessed as increase in p-53 expression at 10 uM after 24 hrs by Western blot analysis; assay type: functional, cell-based
[25] = system: NCI-H460; assay: Induction of cell cycle arrest in human NCI-H460 cells assessed as accumulation at sub G0/G1 phase at 10 uM after 12 hrs by flow cytometric analysis (reference value: 64.5%); assay type: functional
[26] = system: NCI-H460; assay: Induction of apoptosis in human NCI-H460 cells assessed as early apoptotic cells at 10 uM incubated for 48 hrs by AnnexinV-FITC/propidium iodide staining based flow cytometry (reference value: 0.74%); assay type: functional
[27] = system: NCI-H226; assay: Reversal of cell death in human NCI-H226 cells at up to 40 uM measured after 24 hrs by in presence of FeCl3; assay type: functional, cell-based
[28] = system: NCI-H460; assay: Induction of apoptosis in human NCI-H460 cells assessed as early apoptotic cells at 10 uM incubated for 24 hrs in presence of FeCl3 by AnnexinV-FITC/propidium iodide staining based flow cytometry (reference value: 1.69%); assay type: functional
[29] = system: NCI-H460; assay: Induction of apoptosis in human NCI-H460 cells assessed as early apoptotic cells at 10 uM incubated for 36 hrs by AnnexinV-FITC/propidium iodide staining based flow cytometry (reference value: 0.74%); assay type: functional
[30] = system: NCI-H460; assay: Induction of apoptosis in human NCI-H460 cells assessed as late apoptotic cells at 10 uM incubated for 12 hrs by AnnexinV-FITC/propidium iodide staining based flow cytometry (reference value: 7.54%); assay type: functional
[31] = system: NCI-H460; assay: Induction of cell cycle arrest in human NCI-H460 cells assessed as decrease in cyclin D1 expression at 10 uM after 24 hrs by Western blot analysis; assay type: functional, cell-based
[32] = system: NCI-H460; assay: Upregulation of TfR1 level in human NCI-H460 cells at 10 uM by Western blot analysis; assay type: functional, cell-based
[33] = system: NCI-H460; assay: Induction of apoptosis in human NCI-H460 cells assessed as late apoptotic cells at 10 uM incubated for 36 hrs by AnnexinV-FITC/propidium iodide staining based flow cytometry (reference value: 7.54%); assay type: functional
[34] = system: NCI-H460; assay: Induction of apoptosis in human NCI-H460 cells assessed as viable cells at 10 uM incubated for 36 hrs by AnnexinV-FITC/propidium iodide staining based flow cytometry (reference value: 90.4%); assay type: functional; conditions: read-out: Activity
[35] = system: NCI-H460; assay: Induction of apoptosis in human NCI-H460 cells assessed as decrease in PARP measured upto 48 hrs by Western blot analysis; assay type: functional, cell-based; conditions: TDE = time-dependent effect
[36] = system: NCI-H460; assay: Induction of apoptosis in human NCI-H460 cells assessed as viable cells at 10 uM incubated for 12 hrs by AnnexinV-FITC/propidium iodide staining based flow cytometry (reference value: 90.4%); assay type: functional; conditions: read-out: Activity
[37] = system: NCI-H460; assay: Cytotoxicity against human NCI-H460 cells assessed as reduction in cell viability at 5 uM incubated for 48 hrs by CCK8 assay; assay type: functional, cell-based
[38] = system: NCI-H460; assay: Induction of apoptosis in human NCI-H460 cells assessed as late apoptotic cells at 10 uM incubated for 24 hrs in presence of FeCl3 by AnnexinV-FITC/propidium iodide staining based flow cytometry (reference value: 6.09%); assay type: functional
[39] = system: NCI-H460; assay: Induction of cell cycle arrest in human NCI-H460 cells assessed as accumulation at […] at 10 uM after 24 hrs by flow cytometric analysis (reference value: 25.7%); assay type: functional
[40] = system: NCI-H460; assay: Induction of apoptosis in human NCI-H460 cells assessed as necrotic cells at 10 uM incubated for 24 hrs in presence of FeCl3 by AnnexinV-FITC/propidium iodide staining based flow cytometry (reference value: 2.4%); assay type: functional
[41] = system: NCI-H460; assay: Induction of apoptosis in human NCI-H460 cells assessed as viable cells at 10 uM incubated for 48 hrs by AnnexinV-FITC/propidium iodide staining based flow cytometry (reference value: 90.4%); assay type: functional; conditions: read-out: Activity
[42] = system: NCI-H460; assay: Induction of cell cycle arrest in human NCI-H460 cells assessed as accumulation at sub S phase at 10 uM after 12 hrs by flow cytometric analysis (reference value: 25.7%); assay type: functional
[43] = system: NCI-H460; assay: Induction of morphological changes in human NCI-H460 cells assessed as chromatin condensation at 10 uM measured after 24 hrs by Hoechst 33342 staining based assay; assay type: functional, cell-based
[44] = system: NCI-H460; assay: Induction of apoptosis in human NCI-H460 cells assessed as increase in Bax at 10 uM measured by Western blot analysis; assay type: functional, cell-based
[45] = system: NCI-H460; assay: Downregulation of FTH level in human NCI-H460 cells at 10 uM by Western blot analysis; assay type: functional, cell-based
[46] = system: NCI-H460; assay: Induction of apoptosis in human NCI-H460 cells assessed as early apoptotic cells at 10 uM incubated for 24 hrs by AnnexinV-FITC/propidium iodide staining based flow cytometry (reference value: 0.74%); assay type: functional
[47] = system: HEK-293T; assay: Cytotoxicity against human HEK293T cells up to 100 uM assessed as reduction in cell viability incubated for 48 hrs by CCK8 assay; assay type: cell-based
[48] = system: NCI-H460; assay: Induction of cell cycle arrest in human NCI-H460 cells assessed as accumulation at sub G0/G1 phase at 10 uM after 24 hrs by flow cytometric analysis (reference value: 64.5%); assay type: functional
[49] = system: NCI-H460; assay: Induction of cell cycle arrest in human NCI-H460 cells assessed as increase in activated gammaH2AX expression at 10 uM after 24 hrs by Western blot analysis; assay type: functional, cell-based

Q: With `O=C(O)c1ccc(-n2nc(-c3ccccc3O)nc2-c2ccccc2O)cc1` [DEFERASIROX] as the compound, how does the IC50 [1] read?
A: 98.4 µM

Q: And the IC50 [2]?
A: 20.4 µM

Q: For `CC(=O)O[C@H]1C(=O)[C@@]2(C)[C@H]([C@H](OC(=O)c3ccccc3)[C@]3(O)C[C@H](OC(=O)[C@H](O)[C@@H](NC(=O)c4ccccc4)c4ccccc4)C(C)=C1C3(C)C)[C@]1(OC(C)=O)CO[C@@H]1C[C@@H]2O`, which Activity [3] is on record?
A: inactive

Q: And the Activity [4]?
A: inactive

Q: What about the Activity [5] of the same compound?
A: inactive

Q: Which results are given for `CC[C@H]1Oc2ccn(O)c(=O)c2[C@H]2[C@H](C)C[C@H](C)C[C@]12C`?
A: viability at 10 µM [6]: 93.8%; Activity [7]: Active; Activity [8]: 57.9%; Activity [9]: 2.44%; Activity [10]: 1.7%; Activity [11]: Active; IC50 [1]: 4.94 µM; Activity [12]: 15.7%; Activity [13]: 2.93%; Activity [14]: Toxic; Activity [15]: 2.2%; Activity [16]: Tde; Activity [17]: Active; Activity [18]: 0.8%; viability at 10 µM [19]: 75.6%; Activity [20]: 3.92%; Activity [21]: Tde; Activity [22]: 3.4%; Activity [23]: Active; Activity [24]: Active; Activity [25]: 71.8%; Activity [26]: 4.51%; Activity [27]: Active; Activity [28]: 0.75%; Activity [29]: 4.29%; Activity [30]: 9.5%; Activity [31]: Active; IC50 [2]: 1.76 µM; Activity [32]: Active; Activity [33]: 35.7%; viability at 10 µM [34]: 56.1%; Activity [3]: inactive; Activity [4]: inactive; Activity [35]: Tde; Activity [5]: inactive; viability at 10 µM [36]: 86.3%; Activity [37]: Dose-dependent effect; Activity [38]: 4.43%; Activity [39]: 26%; Activity [40]: 1.01%; viability at 10 µM [41]: 34.2%; Activity [42]: 25.9%; Activity [43]: Active; Activity [44]: Active; Activity [45]: Active; Activity [46]: 6.27%; Activity [47]: Toxic; Activity [48]: 73.9%; Activity [49]: Active
